The Kinase Knowledgebase extract (Sharma et al. 2016)

Biological target: EGFR (UniProt P00533)
Experiment: Inhibition of EGFR Kinase Activity

EGFR, sequence (P00533 whole entry, looked up): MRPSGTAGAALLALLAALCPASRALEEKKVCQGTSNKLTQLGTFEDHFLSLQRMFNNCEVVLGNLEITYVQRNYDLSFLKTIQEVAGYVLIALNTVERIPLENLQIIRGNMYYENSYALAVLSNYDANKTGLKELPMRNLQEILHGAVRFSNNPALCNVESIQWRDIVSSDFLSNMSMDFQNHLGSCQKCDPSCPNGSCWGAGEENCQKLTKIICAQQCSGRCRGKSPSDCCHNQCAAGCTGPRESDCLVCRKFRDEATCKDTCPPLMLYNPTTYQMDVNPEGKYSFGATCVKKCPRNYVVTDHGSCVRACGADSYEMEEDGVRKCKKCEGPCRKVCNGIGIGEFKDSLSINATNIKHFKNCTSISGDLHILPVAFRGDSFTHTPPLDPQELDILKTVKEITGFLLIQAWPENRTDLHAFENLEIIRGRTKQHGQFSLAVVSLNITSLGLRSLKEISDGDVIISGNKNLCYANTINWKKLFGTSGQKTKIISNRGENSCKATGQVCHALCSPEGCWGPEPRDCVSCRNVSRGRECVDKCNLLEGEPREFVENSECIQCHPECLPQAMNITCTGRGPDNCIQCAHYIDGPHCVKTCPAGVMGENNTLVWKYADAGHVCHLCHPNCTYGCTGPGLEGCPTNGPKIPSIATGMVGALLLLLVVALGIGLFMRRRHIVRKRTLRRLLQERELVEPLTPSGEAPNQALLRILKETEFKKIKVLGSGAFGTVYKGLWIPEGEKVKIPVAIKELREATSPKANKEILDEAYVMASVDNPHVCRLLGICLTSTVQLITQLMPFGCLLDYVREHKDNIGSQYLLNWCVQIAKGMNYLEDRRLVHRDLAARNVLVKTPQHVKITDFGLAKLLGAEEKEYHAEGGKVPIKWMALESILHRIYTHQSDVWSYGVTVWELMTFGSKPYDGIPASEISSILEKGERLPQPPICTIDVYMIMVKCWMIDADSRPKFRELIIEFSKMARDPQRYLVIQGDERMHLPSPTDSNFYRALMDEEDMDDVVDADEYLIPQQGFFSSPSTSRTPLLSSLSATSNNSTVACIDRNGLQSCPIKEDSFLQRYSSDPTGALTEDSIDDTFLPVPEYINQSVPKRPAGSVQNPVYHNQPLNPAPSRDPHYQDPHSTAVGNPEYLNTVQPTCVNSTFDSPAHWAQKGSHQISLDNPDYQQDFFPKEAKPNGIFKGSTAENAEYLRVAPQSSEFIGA

Row | IC50 | Structure (SMILES)
1 | < 50 µM | C#CCC(=O)Nc1cccc(Nc2ncnc(NN3CCCc4cc(C)ccc43)n2)c1
2 | < 50 µM | C=CC(=O)Nc1cc(Nc2ncnc(N(C)c3cccc(Cl)c3)n2)ccc1OCCCC1CCN(C)CC1
3 | < 50 µM | CN(c1ccc2NN(=Cc2c1)Cc3ccccn3)c4ncnc(Nc5ccc(NC(=O)C=C)cc5)n4
4 | < 50 µM | C=CC(=O)Nc1cccc(Nc2ncnc(Nc3ccc(F)c(Cl)c3)n2)c1
5 | < 50 µM | C=CCN(c1ccc2c(cnn2Cc2ccccc2)c1)c1ncnc(Nc2cccc(NC(=O)C#CC)c2)n1
6 | < 50 µM | C=CC(=O)Nc1cccc(Nc2ncnc(N(CC)c3ccc(OCCC)c(OCCC)c3)n2)c1
7 | < 50 µM | C=CCN(c1ncnc(Nc2ccc(NC(=O)C=C)cc2)n1)n1c(=O)[nH]c2ccccc21
8 | < 50 µM | CC#CC(=O)Nc1cccc(Nc2ncnc(Nc3cccc(CC(=O)OC)c3)n2)c1
9 | < 50 µM | CC#CC(=O)Nc1cccc(Nc2ncnc(N(C)c3ccc(OCC)c(OCC)c3)n2)c1
10 | < 50 µM | C=CCN(c1ncnc(Nc2cccc(NC(=O)C#CC)c2)n1)n1c(=O)n(C(=O)C(C)(C)C)c2ccccc21
11 | < 50 µM | C=CC(=O)Nc1cccc(Nc2ncnc(Nc3cccc4ccccc34)n2)c1
12 | < 50 µM | C=CC(=O)Nc1cccc(Nc2ncnc(Nc3ccc4c(cnn4Cc4ccccn4)c3)n2)c1
13 | < 50 µM | CC#CC(=O)Nc1cccc(Nc2ncnc(N(CC)c3ccc(OC)c(OC)c3)n2)c1
14 | < 50 µM | CC#CC(=O)Nc1cccc(Nc2ncnc(Nc3ccc(OCCO)cc3)n2)c1
15 | < 50 µM | C=CC(=O)Nc1cccc(Nc2ncnc(N(CC)c3cccc(C)c3)n2)c1
16 | < 50 µM | C=CCN(c1ccc2NN(=Cc2c1)Cc3ccccn3)c4ncnc(Nc5ccc(NC(=O)C=C)cc5)n4
17 | < 50 µM | C=CCN(c1ccc(OCCOC)c(OC)c1)c1ncnc(Nc2cccc(NC(=O)C#CC)c2)n1
18 | < 50 µM | CC#CC(=O)Nc1cccc(Nc2ncnc(N(CC)c3ccc(OCCC)c(OCCC)c3)n2)c1
19 | < 50 µM | C=CC(=O)Nc1cccc(Nc2ncnc(N(C)c3ccc(OCCO)cc3)n2)c1
20 | < 50 µM | C=CC(=O)Nc1cccc(Nc2ncnc(N(CC)c3ccc(OCCO)cc3)n2)c1
21 | < 50 µM | CC#CC(=O)Nc1cccc(Nc2ncnc(Nc3cc(Cl)cc4ccccc34)n2)c1
22 | < 50 µM | CC#CC(=O)Nc1cccc(Nc2ncnc(N(C)c3ccc(OCCO)cc3)n2)c1
23 | < 50 µM | CC#CC(=O)Nc1cccc(Nc2ncnc(N(CC)c3cccc(CC(=O)OC)c3)n2)c1
24 | < 50 µM | CC#CC(=O)Nc1cccc(Nc2ncnc(N(CC)n3c(=O)[nH]c4ccccc43)n2)c1
25 | < 50 µM | C=CC(=O)Nc1cccc(Nc2ncnc(N(C)c3cc(Cl)ccc3C)n2)c1

Row | IC50 | Structure (SMILES)
26 | < 50 µM | C=CC(=O)Nc1ccc(Nc2ncnc(N(CC)c3ccc(C(=O)OC)cc3)n2)cc1
27 | < 50 µM | CC#CC(=O)Nc1cccc(Nc2ncnc(Nc3cccc(C)c3)n2)c1
28 | < 50 µM | C=CCN(c1ncnc(Nc2cccc(NC(=O)C=C)c2)n1)c1cc(Cl)ccc1C
29 | < 50 µM | CC#CC(=O)Nc1cccc(Nc2ncnc(N(C)c3cccc(C)c3)n2)c1
30 | < 50 µM | C=CCN(c1ccc(OCc2ccccc2)cc1)c1ncnc(Nc2ccc(NC(=O)C=C)cc2)n1
31 | < 50 µM | C=CCN(c1ccc(OC)c(OC)c1)c1ncnc(Nc2ccc(NC(=O)C=C)cc2)n1
32 | < 50 µM | C=CCN(c1ccc2NN(=Cc2c1)Cc3ccccn3)c4ncnc(Nc5cccc(NC(=O)C=C)c5)n4
33 | < 50 µM | C=CC(=O)Nc1ccc(Nc2ncnc(Nc3ccc(F)c(Cl)c3)n2)cc1
34 | < 50 µM | CC#CC(=O)Nc1cccc(Nc2ncnc(N(CC)c3ccc(C(=O)OC)cc3)n2)c1
35 | < 50 µM | C=CC(=O)Nc1ccc(Nc2ncnc(N(C)c3ccc4c(cnn4Cc4ccccc4)c3)n2)cc1OC
36 | < 50 µM | CC#CC(=O)Nc1cc(Nc2ncnc(Nc3ccc4c(ccn4Cc4ccccc4)c3)n2)ccc1OCCCN1CCOCC1
37 | < 50 µM | C=CC(=O)Nc1ccc(Nc2ncnc(N(C)c3ccc(OCCC)c(OCCC)c3)n2)cc1
38 | < 50 µM | C=CCC(=O)Nc1cccc(Nc2ncnc(Nc3cccc(Cl)c3)n2)c1
39 | < 50 µM | C=CC(=O)Nc1ccc(Nc2ncnc(N(C)c3cccc4ccccc34)n2)cc1
40 | < 50 µM | C=CC(=O)N(CCCN1CCOCC1)c1cccc(Nc2ncnc(Nc3cccc4ccccc34)n2)c1
41 | < 50 µM | C=CC(=O)Nc1cc(Nc2ncnc(Nc3ccc(OCc4ccccc4)c(Cl)c3)n2)ccc1OCCCN1CCOCC1
42 | < 50 µM | C=CCN(c1cccc(C(N)=O)c1)c1ncnc(Nc2cccc(NC(=O)C=C)c2)n1
43 | < 50 µM | C=CCN(c1ncnc(Nc2cccc(NC(=O)C=C)c2)n1)C1CC1c1ccc(Cl)cc1 (stereo not drawn)
44 | < 50 µM | CC#CC(=O)Nc1cccc(Nc2ncnc(N(C)c3ccc(OCc4ccccc4)c(Cl)c3)n2)c1
45 | < 50 µM | C=CC(=O)Nc1ccc(Nc2ncnc(Nc3ccc(OC)cc3)n2)cc1
46 | < 50 µM | C=CC(=O)N(CCCN1CCOCC1)c1cccc(Nc2ncnc(Nc3ccc(OCCO)cc3)n2)c1
47 | < 50 µM | C=CCN(c1ccc(C(=O)OC)cc1)c1ncnc(Nc2cccc(NC(=O)C#CC)c2)n1
48 | < 50 µM | C=CCN(c1ccc(OC)c(OCCOC)c1)c1ncnc(Nc2cccc(NC(=O)C=C)c2)n1
49 | < 50 µM | CC#CC(=O)Nc1cccc(Nc2ncnc(N(C)c3cccc(C(N)=O)c3)n2)c1
50 | < 50 µM | C/C=C/C(=O)Nc1cccc(Nc2ncnc(NC3CC3c3ccccc3)n2)c1 (stereo not drawn)

Row | IC50 | Structure (SMILES)
51 | < 50 µM | C=CC(=O)Nc1ccc(Nc2ncnc(NN3CCCc4cc(OC)ccc43)n2)cc1
52 | < 50 µM | CC#CC(=O)Nc1cccc(Nc2ncnc(N(CC)C3CC3c3ccc(Cl)cc3)n2)c1 (stereo not drawn)
53 | < 50 µM | C=CC(=O)Nc1cccc(Nc2ncnc(N(CC)c3ccc(OC)c(OC)c3)n2)c1
54 | < 50 µM | C=CC(=O)Nc1cccc(Nc2ncnc(Nc3ccc(OCc4cccc(C(F)(F)F)c4)c(OC)c3)n2)c1
55 | < 50 µM | C=CCN(c1ccc(OCCC)c(OCCC)c1)c1ncnc(Nc2cccc(NC(=O)C=C)c2)n1
56 | < 50 µM | CC#CC(=O)Nc1cccc(Nc2ncnc(Nc3ccc(F)c(Cl)c3)n2)c1
57 | < 50 µM | C=CC(=O)Nc1cc(Nc2ncnc(N(C)c3ccc4c(cnn4Cc4ccccc4)c3)n2)ccc1OCCCC1CCN(C)CC1
58 | < 50 µM | CC#CC(=O)Nc1cccc(Nc2ncnc(Nn3c(=O)[nH]c4ccccc43)n2)c1
59 | < 50 µM | CC#CC(=O)Nc1cccc(Nc2ncnc(N(C)n3c(=O)n(C(=O)C(C)(C)C)c4ccccc43)n2)c1
60 | < 50 µM | C=CCN(c1ncnc(Nc2ccc(NC(=O)C=C)cc2)n1)C1CC1c1ccccc1 (stereo not drawn)
61 | < 50 µM | C=CC(=O)N(CCCN1CCOCC1)c1cccc(Nc2ncnc(Nc3cc(Cl)ccc3C)n2)c1
62 | < 50 µM | C=CCN(c1ncnc(Nc2ccc(NC(=O)C=C)cc2)n1)C1CC1c1ccc(Cl)cc1 (stereo not drawn)
63 | < 50 µM | C=CC(=O)Nc1cccc(Nc2ncnc(N(C)c3ccc(OC)c(OCCOC)c3)n2)c1
64 | < 50 µM | C=CC(=O)Nc1cccc(Nc2ncnc(NN3CCCc4c(Cl)cccc43)n2)c1
65 | < 50 µM | C=CC(=O)N(CCCN1CCOCC1)c1cccc(Nc2ncnc(Nc3ccc4c(cnn4Cc4ccccc4)c3)n2)c1
66 | < 50 µM | C=CC(=O)Nc1cccc(Nc2ncnc(N(C)c3ccc(C(=O)OC)cc3)n2)c1
67 | < 50 µM | C=CC(=O)Nc1ccc(Nc2ncnc(N(C)c3cccc(S(=O)(=O)c4ccc([N+](=O)[O-])cc4)c3)n2)cc1
68 | < 50 µM | C=CC(=O)Nc1cccc(Nc2ncnc(N(C)C3CC3c3ccccc3)n2)c1 (stereo not drawn)
69 | < 50 µM | C=CC(=O)Nc1cccc(Nc2ncnc(N(CC)c3cc(Cl)cc4ccccc34)n2)c1
70 | < 50 µM | C=CC(=O)Nc1ccc(Nc2ncnc(N(C)c3cccc(Cl)c3)n2)cc1
71 | < 50 µM | C=CC(=O)Nc1ccc(Nc2ncnc(N(C)c3ccc(OCC)c(OCC)c3)n2)cc1
72 | < 50 µM | C=CC(=O)Nc1cccc(Nc2ncnc(N(CC)c3ccc(F)c(Cl)c3)n2)c1
73 | < 50 µM | C=CC(=O)Nc1ccc(Nc2ncnc(N(C)C3CC3c3ccccc3)n2)cc1 (stereo not drawn)
74 | < 50 µM | C=CC(=O)Nc1cccc(Nc2ncnc(N(CC)c3ccc(OCCOC)c(OC)c3)n2)c1
75 | < 50 µM | CC#CC(=O)Nc1cccc(Nc2ncnc(Nc3ccc4NN(=Cc4c3)Cc5ccccn5)n2)c1

Row | IC50 | Structure (SMILES)
76 | < 50 µM | CC#CC(=O)Nc1cccc(Nc2ncnc(N(C)c3cccc(CC(=O)OC)c3)n2)c1
77 | < 50 µM | C=CCN(c1cccc(C)c1)c1ncnc(Nc2cccc(NC(=O)C=C)c2)n1
78 | < 50 µM | C=CC(=O)Nc1ccc(Nc2ncnc(N(C)c3cc(Cl)cc4ccccc34)n2)cc1
79 | < 50 µM | CC#CC(=O)Nc1cccc(Nc2ncnc(N(CC)c3ccc(OC)c(OCCOC)c3)n2)c1
80 | < 50 µM | C=CC(=O)Nc1cccc(Nc2ncnc(N(CC)C3CC3c3ccccc3)n2)c1 (stereo not drawn)
81 | < 50 µM | C=CC(=O)Nc1ccc(Nc2ncnc(Nc3ccc(OCc4ccccc4)cc3)n2)cc1
82 | < 50 µM | C=CCN(c1ncnc(Nc2cccc(NC(=O)C#CC)c2)n1)c1cccc2ccccc12
83 | < 50 µM | C=CC(=O)Nc1cccc(Nc2ncnc(Nc3cc(Cl)ccc3C)n2)c1
84 | < 50 µM | C=CCN(c1cc(OC)c(OC)c(OCCN2CCOCC2)c1)c1ncnc(Nc2cccc(NC(=O)C#CC)c2)n1
85 | < 50 µM | C=CC(=O)Nc1cccc(Nc2ncnc(N(C)c3cccc(Cl)c3)n2)c1
86 | < 50 µM | C=CCN(c1ncnc(Nc2cccc(NC(=O)C#CC)c2)n1)C1CC1c1ccccc1 (stereo not drawn)
87 | < 50 µM | C=CC(=O)Nc1ccc(Nc2ncnc(N(C)c3ccc4c(ccn4Cc4ccccc4)c3)n2)cc1
88 | < 50 µM | CC#CC(=O)Nc1cc(Nc2ncnc(N(C)c3ccc4c(cnn4Cc4ccccc4)c3)n2)ccc1OC
89 | < 50 µM | C=CC(=O)Nc1ccc(Nc2ncnc(Nc3ccc4c(ccn4Cc4ccccc4)c3)n2)cc1
90 | < 50 µM | C=CC(=O)Nc1ccc(Nc2ncnc(Nn3c(=O)[nH]c4ccccc43)n2)cc1
91 | < 50 µM | C#CCC(=O)Nc1cccc(Nc2ncnc(NN3CCCc4c(Cl)cccc43)n2)c1
92 | < 50 µM | C=CC(=O)Nc1cccc(Nc2ncnc(N(CC)c3cccc(Cl)c3)n2)c1
93 | < 50 µM | CC#CC(=O)Nc1cccc(Nc2ncnc(N(C)c3cccc(Cl)c3)n2)c1
94 | < 50 µM | C=CC(=O)Nc1cccc(Nc2ncnc(Nc3ccc(OCc4ccccc4)c(Cl)c3)n2)c1
95 | < 50 µM | C=CCN(c1ccc(OCCO)cc1)c1ncnc(Nc2ccc(NC(=O)C=C)cc2)n1
96 | < 50 µM | C=CC(=O)Nc1cc(Nc2ncnc(Nc3ccc4c(cnn4Cc4ccccc4)c3)n2)ccc1OC
97 | < 50 µM | C=CC(=O)N(CCCN1CCOCC1)c1cccc(Nc2ncnc(Nc3ccc(OCc4ccccc4)cc3)n2)c1
98 | < 50 µM | C=CC(=O)Nc1ccc(Nc2ncnc(N(C)c3ccc(OC)c(OC)c3)n2)cc1
